From ChEMBL document CHEMBL3627608, “Crystal structures of human RIP2 kinase catalytic domain complexed with ATP-competitive inhibitors: Foundations for understanding inhibitor selectivity” (Bioorg Med Chem, 2015) come the findings set out here.

Assay [1] has as its target T1, Ephrin type-B receptor 2 (Homo sapiens) (UniProt P29323).
T1 sequence (whole entry): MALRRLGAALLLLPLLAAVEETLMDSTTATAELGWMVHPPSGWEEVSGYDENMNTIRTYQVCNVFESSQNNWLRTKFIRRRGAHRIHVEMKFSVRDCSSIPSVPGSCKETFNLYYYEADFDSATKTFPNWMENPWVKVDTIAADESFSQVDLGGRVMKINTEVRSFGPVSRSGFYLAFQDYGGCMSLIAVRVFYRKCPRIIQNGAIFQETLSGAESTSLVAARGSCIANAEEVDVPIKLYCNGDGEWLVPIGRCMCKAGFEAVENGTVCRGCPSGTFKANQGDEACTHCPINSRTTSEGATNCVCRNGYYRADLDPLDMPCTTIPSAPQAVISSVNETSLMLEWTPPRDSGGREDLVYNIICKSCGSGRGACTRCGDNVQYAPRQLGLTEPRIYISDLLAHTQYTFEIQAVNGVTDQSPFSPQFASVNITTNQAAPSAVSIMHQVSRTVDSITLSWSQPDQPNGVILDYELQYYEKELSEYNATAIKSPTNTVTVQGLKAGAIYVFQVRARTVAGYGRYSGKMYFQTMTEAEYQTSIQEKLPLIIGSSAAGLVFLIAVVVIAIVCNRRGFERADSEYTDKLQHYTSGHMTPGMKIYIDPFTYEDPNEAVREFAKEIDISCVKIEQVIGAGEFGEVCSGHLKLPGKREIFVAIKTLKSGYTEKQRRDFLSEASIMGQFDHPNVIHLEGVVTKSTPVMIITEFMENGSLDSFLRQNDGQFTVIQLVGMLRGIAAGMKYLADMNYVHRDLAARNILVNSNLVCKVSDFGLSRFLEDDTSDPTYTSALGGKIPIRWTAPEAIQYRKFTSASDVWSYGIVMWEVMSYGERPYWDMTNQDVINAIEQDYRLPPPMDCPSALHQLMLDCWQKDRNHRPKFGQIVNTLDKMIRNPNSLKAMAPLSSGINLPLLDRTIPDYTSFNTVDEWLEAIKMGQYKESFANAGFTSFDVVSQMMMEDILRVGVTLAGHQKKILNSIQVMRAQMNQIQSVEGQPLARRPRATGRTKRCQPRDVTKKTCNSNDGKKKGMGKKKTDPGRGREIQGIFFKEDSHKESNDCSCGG
Kind of assay: Inhibition of EPHB2 (unknown origin) at 10 uM after 120 mins P33 radiolabeled kinase activity assay.

For assay [2], the target named is T2, Mitogen-activated protein kinase 13 (Homo sapiens) (UniProt O15264).
T2 sequence (whole entry): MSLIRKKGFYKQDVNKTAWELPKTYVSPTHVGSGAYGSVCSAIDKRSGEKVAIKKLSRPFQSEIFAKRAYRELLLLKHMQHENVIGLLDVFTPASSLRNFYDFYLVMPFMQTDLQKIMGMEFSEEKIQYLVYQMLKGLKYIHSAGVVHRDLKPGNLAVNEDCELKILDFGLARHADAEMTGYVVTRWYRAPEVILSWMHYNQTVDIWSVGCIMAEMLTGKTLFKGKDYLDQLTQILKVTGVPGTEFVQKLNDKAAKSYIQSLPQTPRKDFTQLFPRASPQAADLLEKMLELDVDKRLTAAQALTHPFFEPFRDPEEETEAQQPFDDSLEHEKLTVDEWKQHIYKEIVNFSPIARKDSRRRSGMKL
Kind of assay: Inhibition of P38delta (unknown origin) at 10 uM after 120 mins P33 radiolabeled kinase activity assay.

Assay [3] deals with T3, Muscle, skeletal receptor tyrosine-protein kinase (Homo sapiens) (UniProt O15146).
T3 sequence (whole entry): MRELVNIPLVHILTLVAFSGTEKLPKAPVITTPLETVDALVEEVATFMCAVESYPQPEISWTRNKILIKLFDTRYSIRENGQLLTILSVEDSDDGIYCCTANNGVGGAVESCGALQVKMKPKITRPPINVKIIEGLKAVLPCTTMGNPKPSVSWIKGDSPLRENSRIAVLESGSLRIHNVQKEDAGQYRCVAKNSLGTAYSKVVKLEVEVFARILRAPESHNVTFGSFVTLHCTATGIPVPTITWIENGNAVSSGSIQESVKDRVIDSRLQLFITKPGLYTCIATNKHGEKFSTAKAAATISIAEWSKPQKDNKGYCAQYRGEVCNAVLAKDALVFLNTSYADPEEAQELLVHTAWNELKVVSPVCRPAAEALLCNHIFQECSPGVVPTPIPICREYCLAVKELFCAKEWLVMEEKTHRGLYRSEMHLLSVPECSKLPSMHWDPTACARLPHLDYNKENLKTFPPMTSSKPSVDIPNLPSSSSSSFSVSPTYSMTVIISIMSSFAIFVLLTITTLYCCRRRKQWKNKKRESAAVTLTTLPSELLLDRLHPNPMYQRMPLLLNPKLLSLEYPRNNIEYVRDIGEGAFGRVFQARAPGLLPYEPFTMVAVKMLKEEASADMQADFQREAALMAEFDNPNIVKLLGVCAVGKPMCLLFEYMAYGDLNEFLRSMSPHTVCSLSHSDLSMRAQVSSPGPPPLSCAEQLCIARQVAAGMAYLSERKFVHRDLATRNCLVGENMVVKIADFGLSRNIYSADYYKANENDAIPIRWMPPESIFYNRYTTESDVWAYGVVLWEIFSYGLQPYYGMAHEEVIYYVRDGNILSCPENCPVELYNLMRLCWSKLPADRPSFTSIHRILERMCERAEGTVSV
The assay is described as follows: Inhibition of MUSK (unknown origin) at 10 uM after 120 mins P33 radiolabeled kinase activity assay.

In assay [4] the target is Receptor-interacting serine/threonine-protein kinase 2 (Homo sapiens, UniProt O43353). Kind of assay: Inhibition of full-length FLAG-6His-TEV tagged human RIP2 expressed in Sf9 cells assessed as dissociation rate by fluorescent polarization assay.
Sequence of Receptor-interacting serine/threonine-protein kinase 2 (O43353 whole entry): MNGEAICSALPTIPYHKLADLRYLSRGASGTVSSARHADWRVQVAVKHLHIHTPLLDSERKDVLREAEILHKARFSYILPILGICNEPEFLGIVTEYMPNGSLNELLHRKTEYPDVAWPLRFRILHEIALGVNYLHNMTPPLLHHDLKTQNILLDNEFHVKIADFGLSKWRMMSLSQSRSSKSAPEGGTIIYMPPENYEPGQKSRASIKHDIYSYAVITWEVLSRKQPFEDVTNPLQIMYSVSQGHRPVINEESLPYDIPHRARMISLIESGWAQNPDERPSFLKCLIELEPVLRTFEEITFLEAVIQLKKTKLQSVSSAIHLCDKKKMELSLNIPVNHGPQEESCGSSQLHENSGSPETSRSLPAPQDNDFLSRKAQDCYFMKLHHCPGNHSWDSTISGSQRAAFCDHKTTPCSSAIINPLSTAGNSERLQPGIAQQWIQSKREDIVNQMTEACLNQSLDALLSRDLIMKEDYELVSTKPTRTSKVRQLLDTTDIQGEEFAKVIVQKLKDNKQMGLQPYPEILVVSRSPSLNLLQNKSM

For orientation: inhibition means the change of the read-out against control, counted positive when it falls. Turning to `CS(=O)(=O)c1cccc(Nc2nccc(-c3sc(N4CCOCC4)nc3-c3cccc(NS(=O)(=O)c4c(F)cccc4F)c3)n2)c1`, the inhibition was determined as 74.9% in assay [1], 2% in assay [2] and 33.2% in assay [3]. Further, the K in assay [4] was found to be 0.000147 s⁻¹.

As for `CC(C)(C)c1cc(NC(=O)Nc2ccc(Oc3ccncc3)cc2)no1`, the figures for the inhibition in assay [1], in assay [2] and in assay [3] were 97.7%, 93.4% and 16.4%, respectively. The K in assay [4] is 0.000135 s⁻¹.

As to `COCCNC(=O)c1ccc2c(c1)nc(-c1cnc(-c3ccc(Cl)cc3)[nH]1)n2CCOC`, the inhibition in assay [1] was 20.3%; in assay [2], 3.01%; in assay [3], -5.11%. In assay [4], the K turned out to be 0.12 s⁻¹.
